The values below come from ChEMBL document CHEMBL1146286, “Synthesis of carbon-11 labeled sulfonanilide analogues as new potential PET agents for imaging of aromatase in breast cancer” (Bioorg Med Chem Lett, 2007).

One assay deals with SK-BR-3. Kind of assay: Cytotoxicity against human SK-BR-3 cells after 24 hrs by MTT assay relative to NS398. It is filed as functional, cell-based. The following applies: SK-BR-3, 24 h.
Assay [1] concerns the target T1, Prostaglandin G/H synthase 2 (Homo sapiens) (UniProt P35354).
T1 sequence (whole entry): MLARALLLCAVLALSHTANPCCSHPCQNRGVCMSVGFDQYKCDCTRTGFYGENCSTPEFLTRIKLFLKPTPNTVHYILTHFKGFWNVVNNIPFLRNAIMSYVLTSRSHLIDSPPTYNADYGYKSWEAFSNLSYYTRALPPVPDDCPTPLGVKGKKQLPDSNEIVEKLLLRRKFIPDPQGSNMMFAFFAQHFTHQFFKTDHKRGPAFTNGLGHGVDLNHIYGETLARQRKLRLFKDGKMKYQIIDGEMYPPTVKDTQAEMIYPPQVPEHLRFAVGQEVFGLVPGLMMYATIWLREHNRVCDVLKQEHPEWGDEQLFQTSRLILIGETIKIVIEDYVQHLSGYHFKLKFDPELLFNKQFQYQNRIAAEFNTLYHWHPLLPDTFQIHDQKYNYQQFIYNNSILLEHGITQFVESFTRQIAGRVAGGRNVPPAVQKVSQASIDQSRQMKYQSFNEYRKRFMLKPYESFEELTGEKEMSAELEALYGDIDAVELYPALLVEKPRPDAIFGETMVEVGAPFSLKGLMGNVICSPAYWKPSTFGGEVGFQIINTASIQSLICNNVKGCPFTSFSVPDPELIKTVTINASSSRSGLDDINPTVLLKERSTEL
Briefly: Inhibition of COX2.

Molecules are shown by their SMILES. Active and inactive are the calls of the source. No cut-off for these calls is given here.

The compound `CS(=O)(=O)Nc1ccc([N+](=O)[O-])cc1OC1CCCCC1` [NS-398] registered an IC50 with SK-BR-3 of 720 nM.
Turning to `CN(c1ccc([N+](=O)[O-])cc1OC1CCCC1)S(C)(=O)=O`, the result in assay [1] was inactive. Further, the IC50 with SK-BR-3 was 1090 nM.
Consider `CCC(CC)Oc1cc([N+](=O)[O-])ccc1N(C)S(C)(=O)=O`, for which the result in assay [1] was inactive. In the assay with SK-BR-3, the IC50 was found to be 840 nM.
As for `CCCOc1cc([N+](=O)[O-])ccc1N(C)S(C)(=O)=O`, in assay [1], the outcome was inactive. Moreover, the concentration for half-maximal inhibition (IC50) in the assay on SK-BR-3 worked out at 1240 nM.
Taken in the same sequence, the figures for `CN(c1ccc([N+](=O)[O-])cc1OCCC1CCCCC1)S(C)(=O)=O` were “inactive” and 2540 nM.
Taken in the same sequence, the figures for `CC(C)Oc1cc([N+](=O)[O-])ccc1N(C)S(C)(=O)=O` were “inactive” and 1790 nM.
Taken in the same sequence, the figures for `CN(c1ccc([N+](=O)[O-])cc1OC1CCCCC1)S(C)(=O)=O` were “inactive” and 660 nM.
